15 compounds from ChEMBL document CHEMBL5260813, “An overview on the recent developments of 1,2,4-triazine derivatives as anticancer compounds” (Eur J Med Chem, 2017) can be followed below.

The test system of one assay is BT-474. Put plainly: Antiproliferative activity against human BT-474 cells assessed as inhibition of cell growth. It is filed as functional, cell-based.
In assay [1] the test system is K562. Put plainly: Induction of apoptosis in human K562 cells assessed as increase in apoptotic cells under hypoxia condition relative to control. It is filed as functional.
The next assay concerns KB. As to the kind of experiment: Antiproliferative activity against human KB cells assessed as inhibition of cell growth under hypoxia condition. It is filed as functional, cell-based.
The test system of assay [2] is K562. As to the kind of experiment: Induction of apoptosis in human K562 cells assessed as increase in apoptotic cells under normoxia condition relative to control. It is filed as functional.
The nature of assay [3]: Antiproliferative activity against human DiFi cells assessed as inhibition of cell growth by MTS assay. A general note: Tetrazolium dyes change colour on reduction, which living cells bring about.
Assay [4] addresses Vascular endothelial growth factor receptor 2 (Homo sapiens, UniProt P35968). As to the kind of experiment: Inhibition of VEGFR-2 (unknown origin).
In assay [5] the target is Epidermal growth factor receptor (Homo sapiens, UniProt P00533). Put plainly: Inhibition of EGFR (unknown origin).
Sequence of Epidermal growth factor receptor (P00533 whole entry): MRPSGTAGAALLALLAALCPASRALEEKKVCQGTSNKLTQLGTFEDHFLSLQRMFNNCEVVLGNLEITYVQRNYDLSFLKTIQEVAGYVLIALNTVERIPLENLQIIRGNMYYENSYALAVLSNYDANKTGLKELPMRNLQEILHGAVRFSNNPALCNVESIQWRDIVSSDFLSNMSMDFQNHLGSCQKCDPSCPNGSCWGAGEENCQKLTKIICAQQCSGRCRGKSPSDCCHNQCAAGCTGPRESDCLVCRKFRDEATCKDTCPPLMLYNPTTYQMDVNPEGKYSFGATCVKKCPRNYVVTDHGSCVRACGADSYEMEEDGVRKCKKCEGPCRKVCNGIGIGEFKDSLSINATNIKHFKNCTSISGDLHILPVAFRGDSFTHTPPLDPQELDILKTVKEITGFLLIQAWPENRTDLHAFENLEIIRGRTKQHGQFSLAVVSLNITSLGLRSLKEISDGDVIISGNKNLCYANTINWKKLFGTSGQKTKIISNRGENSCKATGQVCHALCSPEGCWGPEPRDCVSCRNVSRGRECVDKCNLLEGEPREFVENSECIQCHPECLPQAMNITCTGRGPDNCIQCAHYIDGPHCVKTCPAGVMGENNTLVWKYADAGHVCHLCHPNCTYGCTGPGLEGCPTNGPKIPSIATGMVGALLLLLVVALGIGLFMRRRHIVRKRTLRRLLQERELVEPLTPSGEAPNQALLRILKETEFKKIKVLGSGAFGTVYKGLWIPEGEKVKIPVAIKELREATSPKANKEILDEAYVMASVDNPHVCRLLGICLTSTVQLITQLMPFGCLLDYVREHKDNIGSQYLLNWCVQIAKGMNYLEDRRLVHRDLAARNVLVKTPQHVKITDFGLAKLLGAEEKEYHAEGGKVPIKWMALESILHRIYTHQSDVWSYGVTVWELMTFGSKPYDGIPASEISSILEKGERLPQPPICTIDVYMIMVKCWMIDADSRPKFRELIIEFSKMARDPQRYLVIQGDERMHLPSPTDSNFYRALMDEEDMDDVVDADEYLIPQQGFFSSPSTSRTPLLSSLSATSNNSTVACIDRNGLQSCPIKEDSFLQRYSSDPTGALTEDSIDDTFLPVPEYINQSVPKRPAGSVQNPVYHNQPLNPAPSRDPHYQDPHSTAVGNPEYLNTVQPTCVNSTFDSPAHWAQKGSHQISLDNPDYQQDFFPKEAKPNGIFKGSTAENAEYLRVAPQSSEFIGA
Assay [6] is described as follows: Ratio of IC50 for antiproliferative activity against human MCF7 cells assessed as inhibition of cell growth under normoxia condition to IC50 for antiproliferative activity against human MCF7 cells assessed as inhibition of cell growth under hypoxia condition. It is filed as functional.
Assay [7] in a line: Ratio of IC50 for antiproliferative activity against human PC-3 cells assessed as inhibition of cell growth under normoxia condition to IC50 for antiproliferative activity against human PC-3 cells assessed as inhibition of cell growth under hypoxia condition. It is filed as functional.
For assay [8], the system named is PC-3. Put plainly: Antiproliferative activity against human PC-3 cells assessed as inhibition of cell growth under hypoxia condition incubated for 72 hrs by MTT assay. The format is functional, cell-based. To be noted: PC-3, 72 h.
Assay [9] relates to HL-60. As to the kind of experiment: Antiproliferative activity against human HL-60 cells assessed as inhibition of cell growth under normoxia condition incubated for 72 hrs by MTT assay. To be noted: HL-60, 72 h. The format is functional, cell-based.
The test system of assay [10] is PC-3. As to the kind of experiment: Antiproliferative activity against human PC-3 cells assessed as inhibition of cell growth under normoxia condition incubated for 72 hrs by MTT assay. The format is functional, cell-based. To be noted: PC-3, 72 h.
Assay [11] has as its system MCF7. As to the kind of experiment: Antiproliferative activity against human MCF7 cells assessed as inhibition of cell growth under normoxia condition incubated for 72 hrs by MTT assay. The format is functional, cell-based. The note with it: MCF7, 72 h.
Assay [12] relates to ECa-109 cell line. As to the kind of experiment: Antiproliferative activity against human Eca-109 cells assessed as inhibition of cell growth under normoxia condition incubated for 72 hrs by MTT assay. The format is functional, cell-based. The note with it: ECa-109, 72 h.
Assay [13] deals with HL-60. As to the kind of experiment: Antiproliferative activity against human HL-60 cells assessed as inhibition of cell growth under hypoxia condition incubated for 72 hrs by MTT assay. The format is functional, cell-based. The note with it: HL-60, 72 h.
Assay [14] can be described thus: Ratio of IC50 for antiproliferative activity against human HL-60 cells assessed as inhibition of cell growth under normoxia condition to IC50 for antiproliferative activity against human HL-60 cells assessed as inhibition of cell growth under hypoxia condition. The format is functional.
The subject of assay [15] is Bel-7402. As to the kind of experiment: Antiproliferative activity against human Bel-7402 cells assessed as inhibition of cell growth under normoxia condition incubated for 72 hrs by MTT assay. To be noted: Bel-7402, 72 h. The format is functional, cell-based.
Assay [16] is described as follows: Ratio of IC50 for antiproliferative activity against human Eca-109 cells assessed as inhibition of cell growth under normoxia condition to IC50 for antiproliferative activity against human Eca-109 cells assessed as inhibition of cell growth under hypoxia condition. The format is functional.
Assay [17] concerns Bel-7402. As to the kind of experiment: Antiproliferative activity against human Bel-7402 cells assessed as inhibition of cell growth under hypoxia condition incubated for 72 hrs by MTT assay. It is filed as functional, cell-based. To be noted: Bel-7402, 72 h.
Assay [18] concerns ECa-109 cell line. As to the kind of experiment: Antiproliferative activity against human Eca-109 cells assessed as inhibition of cell growth under hypoxia condition incubated for 72 hrs by MTT assay. The format is functional, cell-based. To be noted: ECa-109, 72 h.
Assay [19] concerns MCF7. As to the kind of experiment: Antiproliferative activity against human MCF7 cells assessed as inhibition of cell growth under hypoxia condition incubated for 72 hrs by MTT assay. It is filed as functional, cell-based. The note with it: MCF7, 72 h.
Assay [20] is described as follows: Ratio of IC50 for antiproliferative activity against human Bel-7402 cells assessed as inhibition of cell growth under normoxia condition to IC50 for antiproliferative activity against human Bel-7402 cells assessed as inhibition of cell growth under hypoxia condition. The format is functional.
The target in assay [21] is T1, Interleukin-1 receptor-associated kinase 4 (Homo sapiens, UniProt Q9NWZ3).
T1 sequence (Q9NWZ3 whole entry): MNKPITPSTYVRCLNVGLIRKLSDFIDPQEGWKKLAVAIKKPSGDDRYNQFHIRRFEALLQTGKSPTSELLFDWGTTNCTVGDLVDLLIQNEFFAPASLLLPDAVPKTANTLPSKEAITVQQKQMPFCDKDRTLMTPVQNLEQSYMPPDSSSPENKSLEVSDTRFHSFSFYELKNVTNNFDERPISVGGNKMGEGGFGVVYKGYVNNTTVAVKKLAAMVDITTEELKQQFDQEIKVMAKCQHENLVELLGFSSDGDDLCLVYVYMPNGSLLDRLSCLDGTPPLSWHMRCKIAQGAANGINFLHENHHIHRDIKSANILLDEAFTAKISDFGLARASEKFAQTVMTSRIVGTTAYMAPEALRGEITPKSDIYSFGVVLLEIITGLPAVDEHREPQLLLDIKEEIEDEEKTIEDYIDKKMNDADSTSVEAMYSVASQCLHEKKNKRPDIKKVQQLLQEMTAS
Put plainly: Inhibition of human GST-tagged IRAK4 incubated for 30 mins in presence of ATP by fluorescent polarization assay.

The test system of a further assay is MOLT-4. Put plainly: Antiproliferative activity against human MOLT-4 cells assessed as inhibition of cell growth incubated for 72 hrs by MTT assay. The note with it: MOLT-4, 72 h. It is filed as functional, cell-based.
Assay [22] relates to MCF7. Put plainly: Cytotoxicity against human MCF7 cells assessed as inhibition of cell growth incubated for 72 hrs by MTT assay. The format is functional, cell-based. To be noted: MCF7, 72 h.
In assay [23] the test system is HL-60. As to the kind of experiment: Antiproliferative activity against human HL-60 cells assessed as inhibition of cell growth incubated for 72 hrs by MTT assay. The format is functional, cell-based. The note with it: HL-60, 72 h.
The test system of assay [24] is MCF7. As to the kind of experiment: Antiproliferative activity against human MCF7 cells assessed as inhibition of cell growth by MTT assay. The format is functional, cell-based.
The test system of assay [25] is MDA-MB-231. Put plainly: Antiproliferative activity against human MDA-MB-231 cells assessed as inhibition of cell growth by MTT assay. It is filed as functional, cell-based.
Assay [26] relates to MCF7. As to the kind of experiment: Antiproliferative activity against human MCF7 cells assessed as inhibition of cell growth by [3H]thymidine incorporation assay. It is filed as functional, cell-based. (Uptake of a labelled nucleoside into DNA is a usual measure of proliferation.)
Assay [27] has as its system MDA-MB-231. As to the kind of experiment: Antiproliferative activity against human MDA-MB-231 cells assessed as inhibition of cell growth by [3H]thymidine incorporation assay. The format is functional, cell-based.

Sequence of Vascular endothelial growth factor receptor 2 (P35968 whole entry): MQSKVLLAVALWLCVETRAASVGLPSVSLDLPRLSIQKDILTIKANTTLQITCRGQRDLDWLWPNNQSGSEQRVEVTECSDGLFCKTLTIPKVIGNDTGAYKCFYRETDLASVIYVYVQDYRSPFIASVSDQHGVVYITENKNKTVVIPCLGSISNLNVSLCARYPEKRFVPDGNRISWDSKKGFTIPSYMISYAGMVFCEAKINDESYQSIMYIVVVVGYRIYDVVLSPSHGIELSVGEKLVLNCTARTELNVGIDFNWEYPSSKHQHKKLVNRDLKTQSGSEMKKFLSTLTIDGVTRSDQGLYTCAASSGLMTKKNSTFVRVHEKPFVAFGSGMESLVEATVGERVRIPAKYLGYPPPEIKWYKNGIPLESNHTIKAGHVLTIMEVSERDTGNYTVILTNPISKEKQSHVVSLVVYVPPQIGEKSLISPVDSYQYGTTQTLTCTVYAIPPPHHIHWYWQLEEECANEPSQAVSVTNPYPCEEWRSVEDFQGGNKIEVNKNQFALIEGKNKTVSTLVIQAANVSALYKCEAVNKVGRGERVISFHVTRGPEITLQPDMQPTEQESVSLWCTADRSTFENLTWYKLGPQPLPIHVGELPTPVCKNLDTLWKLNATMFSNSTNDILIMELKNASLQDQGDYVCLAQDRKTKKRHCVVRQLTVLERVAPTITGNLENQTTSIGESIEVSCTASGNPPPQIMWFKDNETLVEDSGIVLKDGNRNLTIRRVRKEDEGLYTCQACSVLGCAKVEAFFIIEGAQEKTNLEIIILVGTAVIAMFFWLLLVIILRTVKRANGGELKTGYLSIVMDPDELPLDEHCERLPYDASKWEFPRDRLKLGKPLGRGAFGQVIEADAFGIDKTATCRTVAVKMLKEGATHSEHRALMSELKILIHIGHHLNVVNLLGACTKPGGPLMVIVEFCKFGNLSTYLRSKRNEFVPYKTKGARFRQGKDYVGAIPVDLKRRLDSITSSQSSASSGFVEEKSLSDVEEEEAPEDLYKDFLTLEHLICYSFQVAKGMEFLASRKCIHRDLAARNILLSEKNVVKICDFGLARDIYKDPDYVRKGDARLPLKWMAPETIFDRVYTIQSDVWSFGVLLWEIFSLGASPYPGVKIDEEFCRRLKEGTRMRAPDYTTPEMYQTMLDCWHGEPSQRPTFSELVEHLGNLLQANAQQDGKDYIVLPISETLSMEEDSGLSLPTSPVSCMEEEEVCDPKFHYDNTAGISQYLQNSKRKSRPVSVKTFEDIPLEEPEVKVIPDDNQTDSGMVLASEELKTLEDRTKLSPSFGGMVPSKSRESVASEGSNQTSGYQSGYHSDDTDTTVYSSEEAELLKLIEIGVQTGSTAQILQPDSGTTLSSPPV

Turning to `CCCc1nc2c(=O)n(C)c(=O)nc-2n(C)n1`, in the assay with BT-474, the 50% inhibitory concentration (IC50) – broadly, the midpoint of a concentration-inhibition curve – is 900 nM.

Regarding `Cn1nc(Cc2ccccc2)nc2c(=O)n(C)c(=O)nc1-2`, the IC50 in the assay with BT-474 came out at 900 nM.

Consider `CCn1nc(-c2ccccc2)nc2c(=O)n(C)c(=O)nc1-2`, for which, in the assay with BT-474, the 50% inhibitory concentration (IC50) worked out at 900 nM.

Take `Cn1nc(-c2ccccc2)nc2c(=O)n(C)c(=O)nc1-2`: the concentration for half-maximal inhibition (IC50) in the assay with BT-474 was determined as 900 nM.

For `COc1ccc(COCNc2n[n+]([O-])c3ccccc3[n+]2[O-])cc1`, the Activity with K562 [1] is 33.07%; with K562 [2], 14.13%. Moreover, in the assay with KB, the IC50 is 3320 nM.

Take `[O-][n+]1nc(NCOCc2ccc(C(F)(F)F)cc2)[n+]([O-])c2ccccc21`: the Activity is listed as 54.24% in the assay on K562 [1] and 14.95% in the assay on K562 [2]. In the assay with KB, the IC50 worked out at 4270 nM.

As to `Cc1ccc2c(Nc3ccc(F)c(Cl)c3)ncnn12`, the IC50 was 1600 nM in [3], 3250 nM in assay [4] and > 2000 nM in assay [5].

Regarding `Fc1ccc(Nc2ncnn3cccc23)cc1Cl`, the IC50 was 1600 nM in assay [3], 118 nM in assay [4] and > 10000 nM in assay [5].

As to `Cc1cc2c(Nc3ccc(F)c(Cl)c3)ncnn2c1`, the IC50 in [3] is 1600 nM; in assay [4], 151 nM; in [5], > 2000 nM.

Consider `Cc1ccn2ncnc(Nc3ccc(F)c(Cl)c3)c12`, for which the IC50 was 1600 nM in assay [3], 100 nM in assay [4] and > 10000 nM in assay [5].

In the case of `[O-][n+]1nc(NC2CCCCC2)[n+]([O-])c2ccc(Cl)cc21`, the “Ratio IC50” value was determined as 2.7 in assay [6]; 2 in assay [7]; 6.4 in assay [14]; 2.9 in assay [16]; 1 in [20]. Further, the IC50 in the assay with PC-3 [8], in the assay on HL-60 [9], in the assay on PC-3 [10], in the assay on MCF7 [11], in the assay with ECa-109 cell line [12] and with HL-60 [13] was 200 nM each time. Also, the IC50 with Bel-7402 [15], with Bel-7402 [17], in the assay with ECa-109 cell line [18] and in the assay with MCF7 [19] was 200 nM in each case.

In the case of `CCn1cc(NC(=O)c2ccc3cnc(NC4CCCCC4N)nn23)c(C(N)=O)n1` (centres undefined), the IC50 in [21] stood at 1 nM.

For `Clc1ccc(CSc2nnc3c(n2)-c2cccc4cccc-3c24)cc1`, the IC50 in the assay with MOLT-4, with MCF7 [22] and with HL-60 [23] was 30000 nM in each case.

For the compound `c1ccc(-c2nnc(SSc3nnc(-c4ccccc4)c(-c4ccccc4)n3)nc2-c2ccccc2)cc1`, the IC50 was 25000 nM in the assay on MCF7 [24], 25000 nM with MDA-MB-231 [25], 35000 nM with MCF7 [26] and 39000 nM in the assay on MDA-MB-231 [27].

Take `c1ccc(-c2cc(SN3CCOCC3)nnc2-c2ccccc2)cc1`: the IC50 came to 91000 nM with MCF7 [24], 88000 nM with MDA-MB-231 [25], 87000 nM in the assay on MCF7 [26] and 84000 nM in the assay with MDA-MB-231 [27].
